Data published in US9290536B2, “C4 monomethyl triterpenoid derivatives and methods of use thereof” (Reata Pharmaceuticals, Inc., priority 2011, dated 2016).

test system: IFNγ-induced NO production in RAW264.7; assay: Suppression of IFNγ-induced NO production in RAW264.7 mouse macrophages (Griess reagent, normalized to WST-1 cell viability); format: cell-based; settings: RAW264.7 cells, 2 h pre-treatment with drug (0-200 nM), then IFNγ for 24 h
Method: Nitric Oxide Production and Cell Viability. […] On the next day, cells were pre-treated with DMSO or drug (0-200 nM dose range) for 2 hours, and then treated with recombinant mouse IFNγ (R&D Systems) for 24 hours. Nitric Oxide concentration in media was determined using the Griess reagent system (Promega). Cell viability was determined using WST-1 reagent (Roche). IC50 values were determined based on the suppression of IFNγ induced Nitric Oxide production normalized to cell viability.

Row | Compound | IC50
1 | C[C@@H]1C(=O)C(C#N)=C[C@]2(C)C3=CC(=O)[C@@H]4[C@@H]5CC(C)(C)CC[C@]5(CCC(=O)N5CCCC5)CC[C@@]4(C)[C@]3(C)CC[C@@H]12 [TX63893] | 0.5 nM
2 | C[C@@H]1C(=O)C(C#N)=C[C@]2(C)C3=CC(=O)[C@@H]4[C@@H]5CC(C)(C)CC[C@]5(CCCO)CC[C@@]4(C)[C@]3(C)CC[C@@H]12 [TX63918] | 0.5 nM
3 | C=C1C(O)=C(C#N)C[C@]2(C)C3=CC(=O)[C@@H]4[C@@H]5CC(C)(C)CC[C@]5(C(=O)OC)CC[C@@]4(C)[C@]3(C)CC[C@@H]12 [TX63910] | 304 nM
4 | CONC(=O)[C@]12CCC(C)(C)C[C@H]1[C@H]1C(=O)C=C3[C@@]4(C)C=C(C#N)C(=O)[C@@H](C)[C@@H]4CC[C@@]3(C)[C@]1(C)CC2 [TX63882] | 1.6 nM
5 | CCNC(=O)CC[C@]12CCC(C)(C)C[C@H]1[C@H]1C(=O)C=C3[C@@]4(C)C=C(C#N)C(=O)[C@@H](C)[C@@H]4CC[C@@]3(C)[C@]1(C)CC2 [TX63892] | 0.3 nM
6 | CCC(=O)N[C@]12CCC(C)(C)C[C@H]1[C@H]1C(=O)C=C3[C@@]4(C)C=C(C#N)C(=O)[C@@H](C)[C@@H]4CC[C@@]3(C)[C@]1(C)CC2 [TX63864] | 1.9 nM
7 | C[C@@H]1C(=O)C(C#N)=C[C@]2(C)[C@H]3CC(=O)[C@@H]4[C@@H]5CC(C)(C)CC[C@]5(CO)CC[C@@]4(C)[C@]3(C)CC[C@@H]12 [TX63839] | 4 nM
8 | C[C@@H]1C(=O)C(C#N)=C[C@]2(C)C3=CC(=O)[C@@H]4[C@@H]5CC(C)(C)CC[C@]5(CCC(=O)NCC(F)(F)F)CC[C@@]4(C)[C@]3(C)CC[C@@H]12 [TX63887] | 0.8 nM
9 | CC(=O)OCCC[C@]12CCC(C)(C)C[C@H]1[C@H]1C(=O)C=C3[C@@]4(C)C=C(C#N)C(=O)[C@@H](C)[C@@H]4CC[C@@]3(C)[C@]1(C)CC2 [TX63920] | 0.9 nM
10 | CONC(=O)[C@]12CCC(C)(C)C[C@H]1[C@H]1C(=O)C[C@@H]3[C@@]4(C)C=C(C#N)C(=O)[C@@H](C)[C@@H]4CC[C@@]3(C)[C@]1(C)CC2 [TX63815] | 9.6 nM
11 | C[C@@H]1C(=O)C(C#N)=C[C@]2(C)C3=CC(=O)[C@@H]4[C@@H]5CC(C)(C)CC[C@]5(C(N)=O)CC[C@@]4(C)[C@]3(C)CC[C@@H]12 [TX63557] | 2.2 nM
12 | C[C@@H]1C(=O)C(C#N)=C[C@]2(C)C3=CC(=O)[C@@H]4[C@@H]5CC(C)(C)CC[C@]5(C(=O)N5CCOCC5)CC[C@@]4(C)[C@]3(C)CC[C@@H]12 [TX63881] | 0.9 nM
13 | C[C@@H]1C(=O)C(C#N)=C[C@]2(C)C3=CC(=O)[C@@H]4[C@@H]5CC(C)(C)CC[C@]5(NC=O)CC[C@@]4(C)[C@]3(C)CC[C@@H]12 [TX63681] | 1.6 nM
14 | C[C@@H]1C(=O)C(C#N)=C[C@]2(C)C3=CC(=O)[C@@H]4[C@@H]5CC(C)(C)CC[C@]5(C(=O)N(C)C)CC[C@@]4(C)[C@]3(C)CC[C@@H]12 [TX63878] | 1.4 nM
15 | C[C@@H]1C(=O)C(C#N)=C[C@]2(C)C3=CC(=O)[C@@H]4[C@@H]5CC(C)(C)CC[C@]5(NC(=O)N(C)C)CC[C@@]4(C)[C@]3(C)CC[C@@H]12 [TX63875] | 1.3 nM
16 | COC(=O)[C@]12CCC(C)(C)C[C@H]1[C@H]1C(=O)C=C3[C@@]4(C)C=C(C(N)=O)C(=O)[C@@H](C)[C@@H]4CC[C@@]3(C)[C@]1(C)CC2 [TX63831] | 21 nM
17 | C[C@@H]1C(=O)C(C#N)=C[C@]2(C)C3=CC(=O)[C@@H]4[C@@H]5CC(C)(C)CC[C@]5(C#N)CC[C@@]4(C)[C@]3(C)CC[C@@H]12 [TX63558] | 0.6 nM
18 | COC(=O)[C@]12CCC(C)(C)C[C@H]1[C@H]1C(=O)C=C3[C@@]4(C)C=C(I)C(=O)[C@@H](C)[C@@H]4CC[C@@]3(C)[C@]1(C)CC2 [TX63833] | 88 nM
19 | COC(=O)[C@]12CCC(C)(C)C[C@H]1[C@H]1C(=O)C=C3[C@@]4(C)C=C(C#N)C(=O)C(C)=C4CC[C@@]3(C)[C@]1(C)CC2 [TX63448] | 75 nM
20 | C[C@@H]1C(=O)C(C#N)=C[C@]2(C)C3=CC(=O)[C@@H]4[C@@H]5CC(C)(C)CC[C@]5(OC(N)=O)CC[C@@]4(C)[C@]3(C)CC[C@@H]12 [TX63929] | 0.5 nM
21 | COC(=O)CC[C@]12CCC(C)(C)C[C@H]1[C@H]1C(=O)C=C3[C@@]4(C)C=C(C#N)C(=O)[C@@H](C)[C@@H]4CC[C@@]3(C)[C@]1(C)CC2 [TX63867] | 1.3 nM
22 | COCc1nnc([C@]23CCC(C)(C)C[C@H]2[C@H]2C(=O)C=C4[C@@]5(C)C=C(C#N)C(=O)[C@@H](C)[C@@H]5CC[C@@]4(C)[C@]2(C)CC3)o1 [TX63790] | 1.1 nM
23 | C[C@@H]1C(=O)C(C#N)=C[C@]2(C)C3=CC(=O)[C@@H]4[C@@H]5CC(C)(C)CC[C@]5(NC(=O)C5CCC5)CC[C@@]4(C)[C@]3(C)CC[C@@H]12 [TX63863] | 1.8 nM
24 | C[C@@H]1C(=O)C(C#N)=C[C@]2(C)C3=CC(=O)[C@]4(O)[C@@H]5CC(C)(C)CC[C@]5(CO)CC[C@@]4(C)[C@]3(C)CC[C@@H]12 [TX63908] | 0.6 nM

Row | Compound | IC50
25 | C[C@@H]1C(=O)C(C#N)=C[C@]2(C)[C@H]3CC(=O)[C@@H]4[C@@H]5CC(C)(C)CC[C@]5(C#N)CC[C@@]4(C)[C@]3(C)CC[C@@H]12 [TX63817] | 2.6 nM
26 | C[C@@H]1C(=O)C(C#N)=C[C@]2(C)C3=CC(=O)[C@@H]4[C@@H]5CC(C)(C)CC[C@]5(O)CC[C@@]4(C)[C@]3(C)CC[C@@H]12 [TX63925] | 0.4 nM
27 | COC(=O)[C@]12CCC(C)(C)C[C@H]1[C@H]1C(=O)C=C3[C@@]4(C)CC(C#N)=C(O)[C@@H](C)[C@@H]4CC[C@@]3(C)[C@]1(C)CC2 [TX63778] | 50 nM
28 | CCCCNC(=O)[C@]12CCC(C)(C)C[C@H]1[C@H]1C(=O)C[C@@H]3[C@@]4(C)C=C(C#N)C(=O)[C@@H](C)[C@@H]4CC[C@@]3(C)[C@]1(C)CC2 [TX63843] | 10.9 nM
29 | C[C@@H]1C(=O)C(C#N)=C[C@]2(C)[C@H]3CC(=O)[C@@H]4[C@@H]5CC(C)(C)CC[C@]5(C(=O)O)CC[C@@]4(C)[C@]3(C)CC[C@@H]12 [TX63797] | 21 nM
30 | C[C@@H]1C(=O)C(C#N)=C[C@]2(C)C3=C[C@@H](O)[C@]4(O)[C@@H]5CC(C)(C)CC[C@]5(CO)CC[C@@]4(C)[C@]3(C)CC[C@@H]12 [TX63904] | 10.4 nM
31 | COC(=O)[C@]12CCC(C)(C)C[C@H]1[C@H]1C(=O)C=C3[C@@]4(C)C=CC(=O)[C@@H](C)[C@@H]4CC[C@@]3(C)[C@]1(C)CC2 [TX63832] | 149 nM
32 | COCCC[C@]12CCC(C)(C)C[C@H]1[C@H]1C(=O)C=C3[C@@]4(C)C=C(C#N)C(=O)[C@@H](C)[C@@H]4CC[C@@]3(C)[C@]1(C)CC2 [TX63919] | 1.4 nM
33 | C[C@@H]1C(=O)C(C#N)=C[C@]2(C)C3=CC(=O)[C@@H]4[C@@H]5CC(C)(C)CC[C@]5(C(=O)NC5COC5)CC[C@@]4(C)[C@]3(C)CC[C@@H]12 [TX63825] | 2 nM
34 | CNC(=O)N[C@]12CCC(C)(C)C[C@H]1[C@H]1C(=O)C=C3[C@@]4(C)C=C(C#N)C(=O)[C@@H](C)[C@@H]4CC[C@@]3(C)[C@]1(C)CC2 [TX63876] | 7.3 nM
35 | COCC(=O)NNC(=O)[C@]12CCC(C)(C)C[C@H]1[C@H]1C(=O)C=C3[C@@]4(C)C=C(C#N)C(=O)[C@@H](C)[C@@H]4CC[C@@]3(C)[C@]1(C)CC2 [TX63784] | 7.5 nM
36 | C[C@@H]1C(=O)C(C#N)=C[C@]2(C)C3=CC(=O)[C@@H]4[C@@H]5CC(C)(C)CC[C@]5(NC(=O)c5ccccc5)CC[C@@]4(C)[C@]3(C)CC[C@@H]12 [TX63798] | 1.5 nM
37 | C[C@@H]1C(=O)C(C#N)=C[C@]2(C)[C@H]3CC(=O)[C@@H]4[C@@H]5CC(C)(C)CC[C@]5(C(=O)NCC(F)(F)F)CC[C@@]4(C)[C@]3(C)CC[C@@H]12 [TX63807] | 5.8 nM
38 | CC(=O)NNC(=O)CC[C@]12CCC(C)(C)C[C@H]1[C@H]1C(=O)C=C3[C@@]4(C)C=C(C#N)C(=O)[C@@H](C)[C@@H]4CC[C@@]3(C)[C@]1(C)CC2 [TX63915] | 4 nM
39 | CNC(=O)CC[C@]12CCC(C)(C)C[C@H]1[C@H]1C(=O)C=C3[C@@]4(C)C=C(C#N)C(=O)[C@@H](C)[C@@H]4CC[C@@]3(C)[C@]1(C)CC2 [TX63886] | 0.3 nM
40 | CCCCCCOC(=O)[C@]12CCC(C)(C)C[C@H]1[C@H]1C(=O)C=C3[C@@]4(C)C=C(C#N)C(=O)[C@@H](C)[C@@H]4CC[C@@]3(C)[C@]1(C)CC2 [TX63821] | 53 nM
41 | COC(=O)C1=C[C@]2(C)C3=CC(=O)[C@@H]4[C@@H]5CC(C)(C)CC[C@]5(C(=O)OC)CC[C@@]4(C)[C@]3(C)CC[C@H]2[C@H](C)C1=O [TX63788] | 33.5 nM
42 | CCNC(=O)N[C@]12CCC(C)(C)C[C@H]1[C@H]1C(=O)C=C3[C@@]4(C)C=C(C#N)C(=O)[C@@H](C)[C@@H]4CC[C@@]3(C)[C@]1(C)CC2 [TX63826] | 4.4 nM
43 | CNC(=O)[C@]12CCC(C)(C)C[C@H]1[C@H]1C(=O)C=C3[C@@]4(C)C=C(C#N)C(=O)[C@@H](C)[C@@H]4CC[C@@]3(C)[C@]1(C)CC2 [TX63824] | 1 nM
44 | COC(=O)N[C@]12CCC(C)(C)C[C@H]1[C@H]1C(=O)C=C3[C@@]4(C)C=C(C#N)C(=O)[C@@H](C)[C@@H]4CC[C@@]3(C)[C@]1(C)CC2 [TX63693] | 1.4 nM
45 | C[C@@H]1C(=O)C(C#N)=C[C@]2(C)C3=CC(=O)[C@@H]4[C@@H]5CC(C)(C)CC[C@]5(C(=O)NNC=O)CC[C@@]4(C)[C@]3(C)CC[C@@H]12 [TX63785] | 20 nM
46 | C[C@@H]1C(=O)C(C#N)=C[C@]2(C)[C@H]3CC(=O)[C@@H]4[C@@H]5CC(C)(C)CC[C@]5(C(N)=O)CC[C@@]4(C)[C@]3(C)CC[C@@H]12 [TX63816] | 10.2 nM
47 | CCCCCCC(=O)N[C@]12CCC(C)(C)C[C@H]1[C@H]1C(=O)C=C3[C@@]4(C)C=C(C#N)C(=O)[C@@H](C)[C@@H]4CC[C@@]3(C)[C@]1(C)CC2 [TX63865] | 9.4 nM
